Measured values from patent publication US20210403606A1, “METHOD FOR SEPARATING AND PURIFYING POLYSACCHARIDES FROM GANODERMA SPORES” (ZHONGKE HEALTH INDUSTRY GROUP JIANGSU PHARMACEUTICAL CO., …, priority 2018, published 2021).

Key:
transplanted tumor Heps = assay: Inhibitory effects on the transplanted tumor Heps in mice by tail vein injection; type: in vivo, ICR mice
Procedure: (§1) 1.2. Animals: ICR mice, 18-22 g, half males and half females, provided by the Animal Laboratory of China Pharmaceutical University. The animals were fed with pellet feed in an air-conditioned room at a temperature of 18-24° C., and a relative humidity of 70%.
3.1. Inhibitory effects of No. 1, No. 2, and No. 3 on the transplanted tumor Heps in mice by tail vein injection
3.1.1. Route of administration: No. 1, No. 2, and No. 3 are administrated by tail vein injection (iv).
(§2) 3.1.2. Schedule of administration: the mice are inoculated with solid-type Heps tumors according to protocols of transplanted tumor research, and 24 hours after inoculation, the medicines are intravenously administered once every other day for a total of 4 doses. On the day after stopping administration, the mice are sacrificed and dissected.
3.1.3. Dose setting: There are 6 groups in total, namely:
3.1.4. Volume of administration: 0.4 ml/20 g
(§3) 3.1.5. Test method: 60 mice of the foregoing specification were inoculated with solid-type Heps tumors according to protocols of the transplanted tumor research. The mice were weighed 24 hours after inoculation, and randomly divided into 6 groups, each with 10 mice, having half males and half females. The blank control group and the CTX group were respectively used as a negative control group and a positive control group. 24 hours after inoculation, the medicines were intravenously administered once every other day for a total of 4 doses. The mice were weighed on the day after stopping administration. The tumor-bearing mice were sacrificed, and the tumor masses were separated and weighed, and the obtained data was statistically processed (t-test).

transplanted tumor S180 = assay: Inhibitory effects on the transplanted tumor S180 in mice by tail vein injection; type: in vivo, ICR mice
Procedure: as §1
3.2. Inhibitory effects of No. 1, No. 2, and No. 3 on the transplanted tumor S180 in mice by tail vein injection
3.2.1. Route of administration: No. 1, No. 2, and No. 3 are administrated by tail vein injection (iv).
as §2, with “3.2.2.” for “3.1.2.”, “5180” for “Heps”
3.2.3. Dose setting: There are 6 groups in total, namely:
3.2.4. Volume of administration: 0.4 ml/20 g
as §3, with “3.2.5.” for “3.1.5.”, “5180” for “Heps”

## O=P1(N(CCCl)CCCl)NCCCO1 (centres unmarked) [CTX, Cyclophosphamide]
Transplanted tumor Heps; Heps, 30 mg/kg once every other day, 4 doses
  Tumor inhibition rate: 74.20%
Transplanted tumor Heps; Heps, 30 mg/kg once every other day, 4 doses, X ± SD, n = 10
  Tumor weight: 0.42 ± 0.19 g
Transplanted tumor Heps; Heps-bearing mice, 30 mg/kg once every other day, 4 doses, X ± SD, n = 10
  Weight After administration: 23.2 ± 2.74
Transplanted tumor Heps; Heps-bearing mice, 30 mg/kg, baseline body weight, X ± SD, n = 10
  Weight Before administration: 20.0 ± 1.36
Transplanted tumor S180; S180, 30 mg/kg once every other day, 4 doses
  Tumor inhibition rate: 65.71%
Transplanted tumor S180; S180, 30 mg/kg once every other day, 4 doses, X ± SD, n = 10
  Tumor weight: 0.55 ± 0.18 g
Transplanted tumor S180; S180-bearing mice, 30 mg/kg once every other day, 4 doses, X ± SD, n = 10
  Weight After administration: 23.2 ± 2.74
Transplanted tumor S180; S180-bearing mice, 30 mg/kg, baseline body weight, X ± SD, n = 10
  Weight Before administration: 20.1 ± 1.28
